# Assays:
# [1] = compound: C=CCn1c(=O)c2cnc(Nc3ccc(N4CCN(C)CC4)cc3)nc2n1-c1cccc(C(C)(C)O)n1 [AZD1775]; conditions: max 3 µM
# In short: (§1)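 Cancer cell lines in 1536-well plates (7.5 μl DMEM/F12 or RPMI, 10% FBS) were held 24 hours at 37°C and 5% CO2 and then dosed for 72 hours at a final DMSO of typically 0.2%. Viability was taken from CellTiter-Glo 2.0 luminescence, scaled between blank-well and DMSO-well means. Curves were fitted as two-parameter logistic models with a non-linear mixed effects model, from which the single-agent IC50 was taken.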
# [2] = compound: CC1=CN2[C@@H](C1)C=NC3=CC(=C(C=C3C2=O)OC)OCCCCCOC4=C(C=C5C(=C4)N=C[C@@H]6CC(=CN6C5=O)C)OC [SG3199]; conditions: max 0.001 µM
# In short: as §1
# [3] = compound: C1CC(C1)(C(=O)[O-])C(=O)[O-].N.N.[Pt+2] [Carboplatin]; conditions: max 10 µM
# In short: as §1
# [4] = compound: Nc1ccn([C@@H]2O[C@H](CO)[C@@H](O)C2(F)F)c(=O)n1 [Gemcitabine]; conditions: max 0.3 µM
# In short: as §1
# [5] = compound: COc1cccc2c1C(=O)c1c(O)c3c(c(O)c1C2=O)C[C@@](O)(C(=O)CO)C[C@@H]3O[C@H]1C[C@H](N)[C@H](O)[C@H](C)O1 [Doxorubicin]; conditions: max 1 µM
# In short: as §1
# [6] = compound: NC1(c2ccc(-c3nc4ccn5c(=O)[nH]nc5c4cc3-c3ccccc3)cc2)CCC1 [MK-2206]; conditions: max 10 µM
# In short: as §1
# [7] = compound: O=C(Nc1ccc2[nH]nc(-c3ccncc3)c2c1)[C@@H]1CCN(CC(=O)N2CCN(c3ccc(-c4ncccn4)cc3)CC2)C1; conditions: max 5 µM
# In short: as §1
# [8] = compound: CC(=O)O[C@H]1C(=O)[C@@]2(C)[C@H]([C@H](OC(=O)c3ccccc3)[C@]3(O)C[C@H](OC(=O)[C@H](O)[C@@H](NC(=O)c4ccccc4)c4ccccc4)C(C)=C1C3(C)C)[C@]1(OC(C)=O)CO[C@@H]1C[C@@H]2O [Paclitaxel]; conditions: max 3 µM
# In short: as §1
# [9] = compound: Cc1c2c(nn1C)CSCc1cc(n(C)n1)CSc1cc(c3ccccc3c1)OCCCc1c(C(=O)O)n(C)c3c-2c(Cl)ccc13 [AZD5991]; conditions: max 1 µM
# In short: as §1
# [10] = compound: C1CN(CCC1(C(=O)N[C@@H](CCO)C2=CC=C(C=C2)Cl)N)C3=NC=NC4=C3C=CN4 [AZD5363]; conditions: max 10 µM
# In short: as §1
# [11] = compound: CC1(C)CCC(CN2CCN(c3ccc(C(=O)NS(=O)(=O)c4ccc(NCC5CCOCC5)c([N+](=O)[O-])c4)c(Oc4cnc5[nH]ccc5c4)c3)CC2)=C(c2ccc(Cl)cc2)C1 [Venetoclax]; conditions: max 1 µM
# In short: as §1
# [12] = compound: C[C@@H](c1ccc2nccn2c1)n1nnc2ncc(-c3cnn(C)c3)nc21 [Savolitinib]; conditions: max 1 µM
# In short: as §1
# [13] = compound: O=c1[nH]cc(F)c(=O)[nH]1 [5-Fluorouracil]; conditions: max 20 µM
# In short: as §1
# [14] = compound: CC1=C(C(=CC=C1)Cl)NC(=O)C2=CN=C(S2)NC3=CC(=NC(=N3)C)N4CCN(CC4)CCO [Dasatinib]; conditions: max 2 µM
# In short: as §1
# [15] = compound: C[C@@H](Oc1cc(-c2cnn(C3CCNCC3)c2)cnc1N)c1c(Cl)ccc(F)c1Cl [Crizotinib]; conditions: max 10 µM
# In short: as §1
# [16] = compound: Cc1cc2ncnn2cc1Nc1ncc2c(n1)n(C1CCOCC1)c(=O)n2C [AZD7648]; conditions: max 10 µM
# In short: as §1
# [17] = compound: COc1nnc2ccc(N3CCC(c4ccc(OCCN5CCN(C)C(=O)[C@H]5C)cc4)CC3)nn12 [AZD5153]; conditions: max 1 µM
# In short: as §1
# [18] = compound: CC(=O)Nc1cccc(-n2c(=O)n(C3CC3)c(=O)c3c(Nc4ccc(I)cc4F)n(C)c(=O)c(C)c32)c1 [Trametinib]; conditions: max 1 µM
# In short: as §1
# [19] = compound: COc1cc2ncnc(Nc3ccc(F)c(Cl)c3)c2cc1OCCCN1CCOCC1 [Gefitinib]; conditions: max 10 µM
# In short: as §1
# [20] = compound: CCN(CCO)CCCOc1ccc2c(Nc3cc(CC(=O)Nc4cccc(F)c4)[nH]n3)ncnc2c1 [AZD2811]; conditions: max 1 µM
# In short: as §1
# [21] = compound: COc1cc(Nc2ncc3c(n2)-c2ccc(Cl)cc2C(c2c(F)cccc2OC)=NC3)ccc1C(=O)O [Alisertib]; conditions: max 10 µM
# In short: as §1
# [22] = compound: CS(=O)(=O)CCNCc1ccc(-c2ccc3ncnc(Nc4ccc(OCc5cccc(F)c5)c(Cl)c4)c3c2)o1 [Lapatinib]; conditions: max 10 µM
# In short: as §1
# [23] = compound: Cc1nc(-c2cn3c(n2)-c2ccc(-c4cnn(C(C)(C)C(N)=O)c4)cc2OCC3)n(C(C)C)n1 [Taselisib]; conditions: max 10 µM
# In short: as §1
# [24] = compound: COc1cccc(OCCCN)c1-c1cc(Nc2cnc(C#N)cn2)n[nH]1 [Prexasertib]; conditions: max 1 µM
# In short: as §1
# [25] = compound: O=C(c1cc(Cc2n[nH]c(=O)c3ccccc23)ccc1F)N1CCN(C(=O)C2CC2)CC1 [Olaparib]; conditions: max 10 µM
# In short: as §1
# [26] = compound: CN(CC[C@H](CSC1=CC=CC=C1)NC2=C(C=C(C=C2)S(=O)(=O)NC(=O)C3=CC=C(C=C3)N4CCC(CC4)[C@H](C5=CC=CC=C5C6=CC=C(C=C6)Cl)O)S(=O)(=O)C(F)(F)F)CCO [AZD4320]; conditions: max 1 µM
# In short: as §1
# [27] = compound: COc1cc([C@@H]2c3cc4c(cc3[C@@H](O[C@@H]3O[C@@H]5CO[C@@H](C)O[C@H]5[C@H](O)[C@H]3O)[C@H]3COC(=O)[C@H]23)OCO4)cc(OC)c1O [Etoposide]; conditions: max 10 µM
# In short: as §1
# [28] = compound: Cn1cnc2c(F)c(Nc3ccc(Br)cc3Cl)c(C(=O)NOCCO)cc21 [Selumetinib]; conditions: max 10 µM
# In short: as §1
# [29] = compound: C[C@@H](Nc1cc(F)cc(F)c1)c1cc(C(=O)N(C)C)cc2c(=O)cc(N3CCOCC3)oc12 [AZD8186]; conditions: max 10 µM
# In short: as §1
# [30] = compound: CC(=O)c1c(C)c2cnc(Nc3ccc(N4CCNCC4)cn3)nc2n(C2CCCC2)c1=O [Palbociclib]; conditions: max 10 µM
# In short: as §1
# [31] = compound: CC(C)n1c(=O)n(C)c2cnc3cc(F)c(-c4ccc(OCCCN5CCCCC5)nc4)cc3c21 [AZD1390]; conditions: max 0.3 µM
# In short: as §1
# [32] = compound: CCc1c2c(nc3ccc(O)cc13)-c1cc3c(c(=O)n1C2)COC(=O)[C@]3(O)CC [SN-38]; conditions: max 0.3 µM
# In short: as §1
# [33] = compound: N#Cc1cnc(Nc2cc(NC[C@H]3CNCCO3)c(C(F)(F)F)cn2)cn1 [SRA737]; conditions: max 10 µM
# In short: as §1
# [34] = compound: C[C@@H]1COCCN1C2=NC(=NC(=C2)C3(CC3)[S@](=N)(=O)C)C4=C5C=CNC5=NC=C4 [AZD6738]; conditions: max 10 µM
# In short: as §1
# [35] = compound: CN(C)CCCOc1ccc(-c2ccc3ncc4c(c3c2)n(C2CCOCC2)c(=O)n4C)cn1 [AZD0156]; conditions: max 3 µM
# In short: as §1
cell line,measurement,setting,value
SW1463 (Colorectal Carcinoma),"IC50, cell viability 72 h",[1],> 3 µM
same,"IC50, cell viability 72 h",[2],> 0.001 µM
same,"IC50, cell viability 72 h",[3],> 10 µM
same,"IC50, cell viability 72 h",[4],> 0.3 µM
same,"IC50, cell viability 72 h",[5],> 1 µM
same,"IC50, cell viability 72 h",[6],> 10 µM
same,"IC50, cell viability 72 h",[7],> 5 µM
same,"IC50, cell viability 72 h",[8],> 3 µM
same,"IC50, cell viability 72 h",[9],> 1 µM
same,"IC50, cell viability 72 h",[10],> 10 µM
same,"IC50, cell viability 72 h",[11],> 1 µM
same,"IC50, cell viability 72 h",[12],> 1 µM
same,"IC50, cell viability 72 h",[13],> 20 µM
same,"IC50, cell viability 72 h",[14],> 2 µM
same,"IC50, cell viability 72 h",[15],> 10 µM
same,"IC50, cell viability 72 h",[16],> 10 µM
same,"IC50, cell viability 72 h",[17],> 1 µM
same,"IC50, cell viability 72 h",[18],0.0784 µM
same,"IC50, cell viability 72 h",[19],3.27 µM
same,"IC50, cell viability 72 h",[20],> 1 µM
same,"IC50, cell viability 72 h",[21],> 10 µM
same,"IC50, cell viability 72 h",[22],> 10 µM
same,"IC50, cell viability 72 h",[23],> 10 µM
same,"IC50, cell viability 72 h",[24],0.288 µM
same,"IC50, cell viability 72 h",[25],> 10 µM
same,"IC50, cell viability 72 h",[26],> 1 µM
same,"IC50, cell viability 72 h",[27],> 10 µM
same,"IC50, cell viability 72 h",[28],4.95 µM
same,"IC50, cell viability 72 h",[29],> 10 µM
same,"IC50, cell viability 72 h",[30],7.12 µM
same,"IC50, cell viability 72 h",[31],> 0.3 µM
same,"IC50, cell viability 72 h",[32],> 0.3 µM
same,"IC50, cell viability 72 h",[33],> 10 µM
same,"IC50, cell viability 72 h",[34],> 10 µM
same,"IC50, cell viability 72 h",[35],> 3 µM
